Assay results published in patent US20250164397A1, “SULPHIDE SENSOR” (Oxford University Innovation Limited, priority 2021, published 2025).

What was measured:
[1] = cited from earlier work
[2] = Fluorescence titration with NaBr, Bindfit 1:1 analysis, pH 7.4 10 mM aqueous HEPES buffer; assay type: binding; design: key to Association constant Ka Br^−: NB: No binding observed; details: for Association constant Ka Br^−: 10 μM receptors in 10 mM aqueous HEPES buffer solution, pH = 7.4, 1:1 host:guest, errors in brackets; for fluorescence response to Br^−: excitation at 342 nm, pH 7.4 HEPES
Procedure: (§1) Fluorescence titration experiments were performed using a Horiba Duetta at 293 K. The host molecules (XB1-3, and HB1-3) were dissolved in 10 mM HEPES aqueous buffer solution at pH 7.4 at a concentration of 10 μM. Na salts of the appropriate anion were dissolved in the solution of the host molecule to obtain a concentration. Aliquots of the anion solution were added to 1.00 mL of the host solution in a quartz cuvette, where the sample was then thoroughly mixed before fluorescence spectra were recorded. Association constants were obtained by global analysis using BindFit, using a host-guest 1:1 binding model.
(§2) The anion sensing properties were investigated in pH 7.4 aqueous HEPES buffer solution using fluorescence spectroscopy. At this pH value the protonated forms XB3H^+ and HB3H^+ are the dominant receptor species present in the aqueous solution. The amine pKa of XB3 (10.29) and HB3 (9.98) were experimentally determined by monitoring changes in fluorescence with pH. (FIG. 16).
(§3) The fluorescence emission, following excitation at 342 nm, was monitored upon the addition of sodium hydrosulfide and halide salts.
(§4) With XB2, both Br^− and I^− were sensed (FIG. 11), with the heavier halide also being detected by XB3H^+ (FIG. 13).
(§5) Bindfit analysis^23,24 of the titration data for XB and HB receptors was used to determine 1:1 host: guest stoichiometric anion association constants, as shown below in Table 1.

[3] = Fluorescence titration with NaHS, Bindfit 1:1 analysis and LoD, pH 7.4 10 mM aqueous HEPES buffer; assay type: binding; design: key to Association constant Ka HS^− / LoD, Limit of Detection for HS−: NB: No binding observed; details: for Association constant Ka HS^−: 10 μM receptors in 10 mM aqueous HEPES buffer solution, pH = 7.4, 1:1 host:guest, errors in brackets; for LoD, Limit of Detection for HS−: 10 μM receptors in 10 mM aqueous HEPES buffer, pH 7.4
Procedure: as §1, §2
The fluorescence emission, following excitation at 342 nm, was monitored upon the addition of sodium hydrosulfide and halide salts. […]
as §5

[4] = Fluorescence titration with NaI, Bindfit 1:1 analysis, pH 7.4 10 mM aqueous HEPES buffer; assay type: binding; design: key to Association constant Ka I^−: NB: No binding observed; details: for Association constant Ka I^−: 10 μM receptors in 10 mM aqueous HEPES buffer solution, pH = 7.4, 1:1 host:guest, errors in brackets; for fluorescence response to I^−: excitation at 342 nm, pH 7.4 HEPES
Procedure: as §1, §2, §3, §4, §5

[5] = Fluorescence titration with NaCl, Bindfit 1:1 analysis, pH 7.4 10 mM aqueous HEPES buffer; assay type: binding; design: key to Association constant Ka Cl^−: NB: No binding observed; details: for Association constant Ka Cl^−: 10 μM receptors in 10 mM aqueous HEPES buffer solution, pH = 7.4, 1:1 host:guest, errors in brackets; for fluorescence response to Cl^−: excitation at 342 nm, pH 7.4 HEPES
Procedure: as §1, §2, §3, §4, §5

[6] = Fluorescence emission change on addition of NaCl, NaBr, NaI, NaHS in pH 7.4 HEPES buffer (any anion); assay type: binding
Procedure: as §1, §3, §4

[7] = pKa determined by monitoring changes in fluorescence with pH; assay type: physicochemical; details: for pKa1 / pKa2: emission intensity change with changing pH; for amine pKa: monitoring changes in fluorescence with pH
Excerpt: FIG. 16. XB3: a) XB3 emission intensity change with decreasing pH; b) Emission intensity change for select wavelengths with changing pH; pKa1=4.07 (±0.01), pKa2=10.29 (±0.01). HB3: a) HB3 emission intensity change with decreasing pH; b) Emission intensity change for select wavelengths with changing pH; pKa1=5.91 (±0.07), pKa2=9.98 (±0.01).
as §2

[8] = Fluorescence response of BODIPY receptors in H2O/30% ACN upon titration with various anions; assay type: binding; details: 70% water/30% acetonitrile
Excerpt: (§6) Any observed fluorescence quenching in water could be readily circumvented by addition of a small amount of organic co-solvent. Preliminary solution-phase fluorescence sensing studies of both receptors were thus carried out in 70% water/30% acetonitrile.

Water solubility = assay type: physicochemical
[9] = Electrospray mass spectrometry monitoring for reaction with excess HS^−; assay type: physicochemical; details: 10 μM in 10 mM HEPES aqueous buffer (7.4 pH), excess equivalents of HS^−
Excerpt: (§7) However, the increase in binding strength comes at the expense of a diminished degree of selectivity for HS^− as XB2 also binds Br^− and in particular I^− strongly.

[10] = Fluorescence titration of buffered receptor against NaOH; details: buffered 10 μM receptor
Excerpt: as §7

[11] = Fluorescence titration of XB4 with NaBr in unbuffered water, BindFit; assay type: binding; details: unbuffered water at 298 K
Procedure: (§8) Fluorescence titrations of XB4 were carried out with chloride, bromide, iodide and hydrosulfide.
(§9) BindFit analysis for each anion to determine binding isotherms (FIG. 20), and 1:1 stoichiometric association constants, shown in Table 2, was also conducted for XB4.

[12] = Fluorescence titration of XB4 with NaSH in unbuffered water, BindFit; assay type: binding; details: unbuffered water at 298 K
Procedure: as §8, §9

[13] = Fluorescence titration of XB4 with NaCl in unbuffered water, BindFit; assay type: binding; design: key: N.B.: No Binding; details: unbuffered water at 298 K; errors in parentheses
Procedure: as §8, §9

[14] = Fluorescence titration of XB4 with NaI in unbuffered water, BindFit; assay type: binding; details: unbuffered water at 298 K
Procedure: as §8, §9

[15] = Solution-phase fluorescence sensing of BODIPY receptors in 70% water/30% acetonitrile; assay type: binding
Excerpt: as §6

[16] = excitation at 342 nm, pH 7.4 HEPES

Structure (SMILES): S [Compound H2S, hydrogen sulphide]
- pKa [1]: 7.0

Structure (SMILES): COCCOCCOCCOc1cc(COc2ccc3cc(-n4cc(-c5cncc(-c6cn(-c7cc8ccc(OCc9cc(OCCOCCOCCOC)c(OCCOCCOCCOC)c(OCCOCCOCCOC)c9)cc8oc7=O)nn6)c5)nn4)c(=O)oc3c2)cc(OCCOCCOCCOC)c1OCCOCCOCCOC [HB1, reference compound]
- Association constant Ka Br^− [2]: NB
- Association constant Ka HS^− [3]: NB
- LoD, Limit of Detection for HS− [3]: NB
- Association constant Ka I^− [4]: NB
- Association constant Ka Cl^− [5]: NB
- fluorescent response to any anion [6]: only minor fluorescence perturbations

Structure (SMILES): COCCOCCOCCOc1cc(COc2ccc3cc(-n4cc(CNCc5cn(-c6cc7ccc(OCc8cc(OCCOCCOCCOC)c(OCCOCCOCCOC)c(OCCOCCOCCOC)c8)cc7oc6=O)nn5)nn4)c(=O)oc3c2)cc(OCCOCCOCCOC)c1OCCOCCOCCOC [HB3, reference compound]
- Association constant Ka Br^− [2]: NB
- Association constant Ka HS^− [3]: NB
- LoD, Limit of Detection for HS− [3]: NB
- Association constant Ka I^− [4]: NB
- Association constant Ka Cl^− [5]: NB
- fluorescent response to any anion [6]: no fluorescent response to any anion
- pKa1 [7]: 5.91 (±0.07)
- pKa2 [7]: 9.98 (±0.01)
- amine pKa [7]: 9.98

Structure (SMILES): COCCOCCOCCOc1cc(COC(=O)c2cc(-n3cc(C4=C5C(C)=CC(C)=[N+]5[B-](F)(F)n5c(C)cc(C)c54)nn3)cc(-n3cc(C4=C5C(C)=CC(C)=[N+]5[B-](F)(F)n5c(C)cc(C)c54)nn3)c2)cc(OCCOCCOCCOC)c1OCCOCCOCCOC [HB-BDP-PEG, reference compound]
- response for all anions, in particular HS^−, compared with XB-BDP-PEG [8]: significantly diminished
- water solubility (Water solubility): generally water soluble

Structure (SMILES): COCCOCCOCCOc1cc(COc2ccc3cc(-n4nnc(-c5cncc(-c6nnn(-c7cc8ccc(OCc9cc(OCCOCCOCCOC)c(OCCOCCOCCOC)c(OCCOCCOCCOC)c9)cc8oc7=O)c6I)c5)c4I)c(=O)oc3c2)cc(OCCOCCOCCOC)c1OCCOCCOCCOC [XB1]
- Association constant Ka Br^− [2]: NB
- fluorescence response to Br^− [2]: no intensity diminutions
- Association constant Ka HS^− [3]: 16500 (1600) M^−1
- fluorescence intensity quenched ([3]; 10 equivalents of HS^−, excitation at 342 nm, pH 7.4 HEPES): 60%
- Association constant Ka I^− [4]: NB
- fluorescence response to I^− [4]: no intensity diminutions
- Association constant Ka Cl^− [5]: NB
- fluorescence response to Cl^− [5]: no intensity diminutions
- reaction with HS^− (electrospray mass spectrometry) [9]: no evidence of reaction was observed

Structure (SMILES): COCCOCCOCCOc1cc(COc2ccc3cc(-n4nnc(-c5cc(-c6nnn(-c7cc8ccc(OCc9cc(OCCOCCOCCOC)c(OCCOCCOCCOC)c(OCCOCCOCCOC)c9)cc8oc7=O)c6I)c[n+](C)c5)c4I)c(=O)oc3c2)cc(OCCOCCOCCOC)c1OCCOCCOCCOC.O=S(=O)([O-])C(F)(F)F [XB2]
- Association constant Ka Br^− [2]: 60800 M⁻¹
- fluorescence response to Br^− [2]: sensed
- Association constant Ka HS^− [3]: 158000 (31000) M^−1
- quenching on addition of HS^− [3, 16]: 45%
- Association constant Ka I^− [4]: 103000 (24000) M^−1
- fluorescence response to I^− [4]: sensed
- Association constant Ka Cl^− [5]: NB
- fluorescence response to Cl^− [5]: no change was observed

Structure (SMILES): COCCOCCOCCOc1cc(COc2ccc3cc(-n4nnc(CNCc5nnn(-c6cc7ccc(OCc8cc(OCCOCCOCCOC)c(OCCOCCOCCOC)c(OCCOCCOCCOC)c8)cc7oc6=O)c5I)c4I)c(=O)oc3c2)cc(OCCOCCOCCOC)c1OCCOCCOCCOC [XB3]
- Association constant Ka Br^− [2]: NB
- Association constant Ka HS^− [3]: 5600 (530) M^−1
- LoD, Limit of Detection for HS− ([3]; listed as XB3H^+): 24.6 µM
- quenching on addition of HS^− [3, 16]: 38%
- change in fluorescence on titration against NaOH [10]: no change in fluorescence
- Association constant Ka I^− [4]: 46000 (14000) M^−1
- fluorescence response to I^− [4]: detected
- Association constant Ka Cl^− [5]: NB
- fluorescence response to Cl^− [5]: no change was observed
- pKa1 [7]: 4.07 (±0.01)
- pKa2 [7]: 10.29 (±0.01)
- amine pKa [7]: 10.29

Structure (SMILES): COCCOCCOCCN(CCCOc1ccc2cc(-n3nnc(CNCc4nnn(-c5cc6ccc(OCCCN(CCOCCOCCOC)CCOCCOCCOC)cc6oc5=O)c4I)c3I)c(=O)oc2c1)CCOCCOCCOC [XB4]
- coumarin fluorescence response to bromide [11]: switching off
- Association constant Ka Br^− ([11]; errors in parentheses): >10^5 M^−1
- coumarin fluorescence response to hydrosulfide [12]: switching off
- Association constant Ka HS^− ([12]; errors in parentheses): 7500 (660) M^−1
- Association constant Ka Cl^− [13]: N.B.
- coumarin fluorescence response to iodide [14]: switching off
- Association constant Ka I^− ([14]; errors in parentheses): >10^5 M^−1

Structure (SMILES): COCCOCCOCCOc1cc(COC(=O)c2cc(-n3nnc(C4=C5C(C)=CC(C)=[N+]5[B-](F)(F)n5c(C)cc(C)c54)c3I)cc(-n3nnc(C4=C5C(C)=CC(C)=[N+]5[B-](F)(F)n5c(C)cc(C)c54)c3I)c2)cc(OCCOCCOCCOC)c1OCCOCCOCCOC [XB-BDP-PEG]
- fluorescence perturbation by I^− [15]: Smaller, but notable, perturbations
- fluorescence perturbation by SCN^− [15]: Smaller, but notable, perturbations
- fluorescence response to Br [15]: only very small responses
- fluorescence response to Cl [15]: only very small responses
- emission quenching by HS^− ([15]; preliminary): ≈ 65%
- water solubility (Water solubility): generally water soluble
